Data set [1] concerns Rat1. Description: Antitumor activity at rat Rat1 cells expressing myr-p110delta xenografted in athymic nude mouse assessed as T/C ratio at 30 mg/kg, po bid measured after 7 to 15 days. In kind it is functional. To be noted: time 7-15 day.
Data set [2] concerns Rat1. Description: Antitumor activity at rat Rat1 cells expressing myr-p110alpha xenografted in athymic nude mouse assessed as T/C ratio at 30 mg/kg, po bid measured after 14 to 22 days. The settings on record: time 14-22 day. It is filed as functional.
The subject of data set [3] is Rat1. Description: Antitumor activity at rat Rat1 cells expressing myr-p110alpha xenografted in athymic nude mouse assessed as T/C ratio at 20 mg/kg, po bid measured after 14 to 22 days. The settings on record: time 14-22 day. In kind it is functional.
A short description of data set [4]: Toxicity in athymic nude mouse xenografted with rat Rat1 cells expressing myr-p110delta assessed as drug tolerance at 20 mg/kg, po bid measured for 7 to 15 days. It is filed as organism-based. To be noted: in vivo, time 7-15 day.
The target of data set [5] is T1, Tubulin (Homo sapiens) (UniProt P68371+Q9H4B7+P0DPH7+P68366+Q13509+Q71U36+P04350+Q3ZCM7+P07437+P68363+Q9BQE3+Q6PEY2+Q13885+Q9BVA1+Q9BUF5). Description: Binding affinity to tubulin in human A2058 cells assessed as condensed DNA score at 5 uM measured after 24 hrs by DiffQuick staining based microscopic analysis. In kind it is cell-based.
Data set [6] in a line: Toxicity in athymic nude mouse xenografted with rat Rat1 cells expressing myr-p110delta assessed as body weight loss at 30 mg/kg, po bid measured for 7 to 15 days. It is filed as organism-based. The settings on record: in vivo, time 7-15 day.
Data set [7] deals with Rat1. Description: Antitumor activity at rat Rat1 cells expressing myr-p110delta xenografted in athymic nude mouse assessed as T/C ratio at 20 mg/kg, po bid measured after 7 to 15 days. It is filed as functional. The settings on record: time 7-15 day.
A short description of data set [8]: Toxicity in athymic nude mouse xenografted with rat Rat1 cells expressing myr-p110alpha assessed as body weight loss at 20 to 30 mg/kg, po bid measured for 7 to 15 days. The settings on record: in vivo, dose lower 20 mg/kg, time lower 7 day, dose upper 30 mg/kg, time upper 15 day. In kind it is organism-based.
A short description of data set [9]: Brain to blood ratio in OF1 mouse at 1 mg/kg, iv measured at 5 mins post dose by LC-MS/MS analysis. In kind it is ADME, organism-based. The settings on record: brain and blood, read-out: BBR.
Another data set deals with A2780. Description: Induction of cell cycle arrest in human A2780 cells assessed as G2/M marker expression level at 30 uM measured after 6 hr by immunofluorescence staining method. It is filed as functional, cell-based.
For data set [10], the target named is T1, Tubulin (Homo sapiens). Description: Binding affinity to tubulin in human A2058 cells assessed as condensed DNA score at 5 uM measured after 6 hrs by DiffQuick staining based microscopic analysis. It is filed as cell-based.
Another data set deals with Tubulin (Sus scrofa) (UniProt P02554+P02550). Description: Inhibition of porcine tubulin polymerization assessed as inhibition of microtubule polymerization at 15 to 30 uM measured after 1 hr. The settings on record: dose 15-30 µM, DDE = dose-dependent effect. In kind it is protein assay.
A short description of data set [11]: Brain to blood ratio in OF1 mouse at 1 mg/kg, iv measured at 1 hr post dose by LC-MS/MS analysis. It is filed as ADME, organism-based. To be noted: brain and blood, read-out: BBR.

Activity calls are given as the source filed them. The calls are words filed in the database; no cut-off is given here.

Sequence of Tubulin (Sus scrofa) (P02550 whole entry, looked up): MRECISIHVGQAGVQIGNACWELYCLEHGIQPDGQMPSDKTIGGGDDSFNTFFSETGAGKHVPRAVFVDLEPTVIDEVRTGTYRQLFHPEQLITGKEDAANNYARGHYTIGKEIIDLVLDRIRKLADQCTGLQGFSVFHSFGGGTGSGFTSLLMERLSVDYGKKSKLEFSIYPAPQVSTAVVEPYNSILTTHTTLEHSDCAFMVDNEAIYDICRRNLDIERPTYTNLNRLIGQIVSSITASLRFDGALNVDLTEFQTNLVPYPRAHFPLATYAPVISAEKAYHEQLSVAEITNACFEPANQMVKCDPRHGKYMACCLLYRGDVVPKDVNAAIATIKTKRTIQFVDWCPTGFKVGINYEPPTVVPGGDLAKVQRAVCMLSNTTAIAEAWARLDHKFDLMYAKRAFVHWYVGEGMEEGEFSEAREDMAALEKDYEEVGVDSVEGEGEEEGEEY
Sequence of Tubulin (Sus scrofa) (P02554 whole entry, looked up): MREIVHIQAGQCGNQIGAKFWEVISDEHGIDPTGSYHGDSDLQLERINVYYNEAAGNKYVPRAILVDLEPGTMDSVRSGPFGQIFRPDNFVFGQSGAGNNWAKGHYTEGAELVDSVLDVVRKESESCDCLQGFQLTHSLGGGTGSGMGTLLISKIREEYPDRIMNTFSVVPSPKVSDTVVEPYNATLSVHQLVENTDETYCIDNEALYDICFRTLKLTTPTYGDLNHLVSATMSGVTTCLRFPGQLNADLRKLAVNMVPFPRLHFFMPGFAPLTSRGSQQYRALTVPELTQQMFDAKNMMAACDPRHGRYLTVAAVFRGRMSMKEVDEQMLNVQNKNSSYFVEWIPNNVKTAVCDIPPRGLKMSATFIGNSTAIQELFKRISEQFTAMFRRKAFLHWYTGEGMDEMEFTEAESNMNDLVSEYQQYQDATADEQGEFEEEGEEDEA

Take `Nc1cc(C(F)(F)F)c(-c2cc(N3CCOCC3)nc(N3CCOCC3)n2)cn1` [BUPARLISIB]: the T/C with Rat1 [1] is given as 0.12; with Rat1 [2], -0.61; in the data set on Rat1 [3], -0.15; in the data set with Rat1 [7] it was 0.1. For the same compound, the Activity result in data set [4] was “Toxic”; on Tubulin (Homo sapiens) [5], more than 12%; in data set [6], -8%; in [8], -7%; on Tubulin (Homo sapiens) [10], more than 12%. Besides, in data set [9], the Kp at 5 min was 1.98. Also, the outcome with A2780 was Active. Further, the inhibition entry at Tubulin (Sus scrofa) is “Dde”. In addition, the Kp at 1 h in data set [11] is 1.74.

These data come from ChEMBL document CHEMBL5137017, “Identification of NVP-CLR457 as an Orally Bioavailable Non-CNS-Penetrant pan-Class IA Phosphoinositol-3-Kinase Inhibitor” (J Med Chem, 2022).
